Key:
BCDIN3D [1] = molecular target: T1, BCDIN3D (Homo sapiens, UniProt Q7Z5W3); assay: BCDIN3D InCellPulse thermal stability assay in transfected A549 cells; type: cell-based; conditions: transiently transfected A549 cells, heat shock 58° C. 15 min
T1 sequence (Q7Z5W3 1-292): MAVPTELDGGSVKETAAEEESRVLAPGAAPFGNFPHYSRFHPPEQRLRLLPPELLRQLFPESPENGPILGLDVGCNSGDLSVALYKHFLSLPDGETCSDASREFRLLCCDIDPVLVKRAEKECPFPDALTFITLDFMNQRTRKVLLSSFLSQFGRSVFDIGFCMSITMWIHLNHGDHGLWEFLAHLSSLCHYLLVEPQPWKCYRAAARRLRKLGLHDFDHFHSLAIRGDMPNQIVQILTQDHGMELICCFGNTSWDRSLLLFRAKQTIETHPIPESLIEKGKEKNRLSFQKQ
Procedure, shortened: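 Thermal stabilisation read-out: after a 15 min 58 °C heat shock, ePL-tagged BCDIN3D in transiently transfected A549 cells (1500/well) was quantified by enzyme-fragment complementation luminescence. Compounds were pre-incubated with cells 1 h at 37 °C, 0.6% DMSO final.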

BCDIN3D [2] = molecular target: T1, BCDIN3D; assay: BCDIN3D IC50 RFMS (RapidFire) assay with mini-helix; type: biochemical; conditions: mini-helix substrate 0.2 μM, SAM 6 μM, 25 nM enzyme
Procedure, shortened: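 SAH formation was measured by RapidFire mass spectrometry with D4- and 13C10-SAH internal standards after TCA quench. Substrates 6 μM SAM and 0.2 μM mini-helix reacted 1 h at 37 °C with 25 nM enzyme, which had been preincubated 10 min with compound (1% DMSO) in Tris pH 8.0 buffer with DTT, EDTA, BSA.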

Row | Compound | IC50 (BCDIN3D [1]) [nM] | IC50 (BCDIN3D [2]) [nM]
1 | CNc1nc(NCC(C)(N)c2ccccc2)nc2c1cnn2C (stereo not drawn) [Compound 4.39, 6-N-(2-amino-2-phenylpropyl)-4-N,1-dimethylpyrazolo[3,4-d]pyrimidine-4,6-diamine] | 17100 | 9170
2 | CCN(C)c1nc(NCC(N)c2ccccc2)nc2c1cnn2C (stereo not drawn) [Compound 4.42, 6-N-(2-amino-2-phenylethyl)-4-N-ethyl-4-N,1-dimethylpyrazolo[3,4-d]pyrimidine-4,6-diamine] | 7570 | 2280
3 | Cn1ncc2c(NC3CC3)nc(NCC(N)c3ccccc3)nc21 (stereo not drawn) [Compound 4.43, 6-N-(2-amino-2-phenylethyl)-4-N-cyclopropyl-1-methylpyrazolo[3,4-d]pyrimidine-4,6-diamine] | 4200 | 2560
4 | CC(C)Nc1nc(NCC(N)c2ccccc2)nc2c1cnn2C (stereo not drawn) [Compound 4.46, 6-N-(2-amino-2-phenylethyl)-1-methyl-4-N-propan-2-ylpyrazolo[3,4-d]pyrimidine-4,6-diamine] | 1130 | 501
5 | CC(C)Nc1nc(NC[C@H](N)c2ccccc2)nc2c1cnn2C [Compound 4.47, 6-N-[(2R)-2-amino-2-phenylethyl]-1-methyl-4-N-propan-2-ylpyrazolo[3,4-d]pyrimidine-4,6-diamine] | 667 | 253
6 | Cn1ncc2c(N3CCCC3)nc(NCC(N)c3ccccc3)nc21 (stereo not drawn) [Compound 4.48, N′-(1-methyl-4-pyrrolidin-1-ylpyrazolo[3,4-d]pyrimidin-6-yl)-1-phenylethane-1,2-diamine] | 7400 | 3860
7 | Cn1ncc2c(NC(C)(C)C)nc(NCC(N)c3ccccc3)nc21 (stereo not drawn) [Compound 4.50, 6-N-(2-amino-2-phenylethyl)-4-N-tert-butyl-1-methylpyrazolo[3,4-d]pyrimidine-4,6-diamine] | 871 | 196
8 | Cn1ncc2c(NC(C)(C)C)nc(NCC(C)(N)c3ccccc3)nc21 (stereo not drawn) [Compound 4.51, N6-(2-amino-2-phenyl-propyl)-N4-tert-butyl-1-methyl-pyrazolo[3,4-d]pyrimidine-4,6-diamine] | 1810 | 581
9 | [2H]C([2H])([2H])n1ncc2c(NC(C)(C)C)nc(NCC(N)c3ccccc3)nc21 (stereo not drawn) [Compound 4.52, N6-(2-amino-2-phenyl-ethyl)-N4-tert-butyl-1-(trideuteriomethyl)pyrazolo[3,4-d]pyrimidine-4,6-diamine] | 536 | 169

Next, values leading:

Row | IC50 (BCDIN3D [1]) [nM] | IC50 (BCDIN3D [2]) [nM] | Compound
10 | 4790 | 3630 | CNc1nc(NC[C@H](N)c2ccccc2)nc2c1cnn2C [Compound 4.40, 6-N-[(2R)-2-amino-2-phenylethyl]-4-N,1-dimethylpyrazolo[3,4-d]pyrimidine-4,6-diamine]
11 | 3330 | 945 | CCNc1nc(NCC(N)c2ccccc2)nc2c1cnn2C (stereo not drawn) [Compound 4.41, 6-N-(2-amino-2-phenylethyl)-4-N-ethyl-1-methylpyrazolo[3,4-d]pyrimidine-4,6-diamine]
12 | 992 | 527 | Cn1ncc2c(NCC(F)(F)F)nc(NCC(N)c3ccccc3)nc21 (stereo not drawn) [Compound 4.44, 6-N-(2-amino-2-phenylethyl)-1-methyl-4-N-(2,2,2-trifluoroethyl)pyrazolo[3,4-d]pyrimidine-4,6-diamine]
13 | 414 | 316 | Cn1ncc2c(NCC(F)(F)F)nc(NC[C@H](N)c3ccccc3)nc21 [Compound 4.45, N6-[(2R)-2-amino-2-phenyl-ethyl]-1-methyl-N4-(2,2,2-trifluoroethyl)pyrazolo[3,4-d]pyrimidine-4,6-diamine]
14 | 6060 | 3390 | COCCNc1nc(NCC(N)c2ccccc2)nc2c1cnn2C (stereo not drawn) [Compound 4.49, 6-N-(2-amino-2-phenylethyl)-4-N-(2-methoxyethyl)-1-methylpyrazolo[3,4-d]pyrimidine-4,6-diamine]
15 | 282 | 118 | Cn1ncc2c(NC(C)(C)C)nc(NC[C@H](N)c3ccccc3)nc21 [Compound 4.53, 6-N-[(2R)-2-amino-2-phenylethyl]-4-N-tert-butyl-1-methylpyrazolo[3,4-d]pyrimidine-4,6-diamine]
